{
  "source": "paper PMC5848165",
  "about": "(Toxins, 2018)",
  "key": {"Nav1.8": {"test_system": "Nav1.8", "test": "Whole-cell patch clamp, Nav1.8 in ND cells", "format": "cell-based, human", "details": "1 µM, −10 mV from −80 mV", "text": "(§1) Nine sodium channel subtypes have been identified and classified as TTX-S (Nav1.1–Nav1.4, Nav1.6, and Nav1.7) or TTX-R types (Nav1.5, Nav1.8, and Nav1.9). […] However, the subtype selectivity of JZTX-34 on the subtype of sodium channel is still unknown. In this work, effects of JZTX-34 on VGSC subtypes (Nav1.1–Nav1.8) were examined. Nav1.1–Nav1.7 were transfected into HEK293 cells and Nav1.8 currents were expressed in ND cells. Inward sodium currents were elicited by a 50 ms depolarizing potential to −10 mV from a holding potential of −80 mV every 5 s. […] No effects on other sodium channel subtypes were found (Nav1.1, Nav1.2, Nav1.4–Nav1.6, and Nav1.8) (Figure S2). […]\n(§2) The HEK293T cells were maintained in standard culture conditions (5% CO2 and 37 °C). […] After culturing for 36–72 h, cells with obvious green fluorescence were selected for sodium currents recordings the internal solution for sodium currents recording that contained (in mM) 140 CsF, 5 NaCl, 10 HEPES, 3 Na2-ATP, and 10 EGTA. […]\n(§3) Sodium currents were recorded from DRG, HEK293, and ND cells by the whole-cell patch-clamp technique at 25 °C. […] Experiments date were acquired from whole-cell Axon 700B patch clamp amplifier (Molecular Devices, Sunnyvale, CA, USA) and analyzed by the program Clampfit10.0 (Molecular Devices, Sunnyvale, CA, USA) and Sigmaplot. […]"}, "Nav1.2": {"test_system": "Nav1.2", "test": "Whole-cell patch clamp, Nav1.2 in HEK293 cells", "format": "cell-based, rat", "details": "1 µM, −10 mV from −80 mV", "text": "as §1, §2, §3"}, "Nav1.5 R800D": {"target": "T1, Nav1.5 R800D (Rattus norvegicus, UniProt P15389, R801D)", "T1 construct": "expressed in transfected cells; host or cells: HEK293 (HEK293T) cells, transient", "T1 sequence (Q07699 19-218)": "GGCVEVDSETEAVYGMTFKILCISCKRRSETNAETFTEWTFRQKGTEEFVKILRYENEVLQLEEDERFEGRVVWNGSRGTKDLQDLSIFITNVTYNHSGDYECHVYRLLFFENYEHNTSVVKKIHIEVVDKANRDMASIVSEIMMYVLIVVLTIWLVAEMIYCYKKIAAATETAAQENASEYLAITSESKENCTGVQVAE", "T1 sequence (P15389 whole entry R801D)": "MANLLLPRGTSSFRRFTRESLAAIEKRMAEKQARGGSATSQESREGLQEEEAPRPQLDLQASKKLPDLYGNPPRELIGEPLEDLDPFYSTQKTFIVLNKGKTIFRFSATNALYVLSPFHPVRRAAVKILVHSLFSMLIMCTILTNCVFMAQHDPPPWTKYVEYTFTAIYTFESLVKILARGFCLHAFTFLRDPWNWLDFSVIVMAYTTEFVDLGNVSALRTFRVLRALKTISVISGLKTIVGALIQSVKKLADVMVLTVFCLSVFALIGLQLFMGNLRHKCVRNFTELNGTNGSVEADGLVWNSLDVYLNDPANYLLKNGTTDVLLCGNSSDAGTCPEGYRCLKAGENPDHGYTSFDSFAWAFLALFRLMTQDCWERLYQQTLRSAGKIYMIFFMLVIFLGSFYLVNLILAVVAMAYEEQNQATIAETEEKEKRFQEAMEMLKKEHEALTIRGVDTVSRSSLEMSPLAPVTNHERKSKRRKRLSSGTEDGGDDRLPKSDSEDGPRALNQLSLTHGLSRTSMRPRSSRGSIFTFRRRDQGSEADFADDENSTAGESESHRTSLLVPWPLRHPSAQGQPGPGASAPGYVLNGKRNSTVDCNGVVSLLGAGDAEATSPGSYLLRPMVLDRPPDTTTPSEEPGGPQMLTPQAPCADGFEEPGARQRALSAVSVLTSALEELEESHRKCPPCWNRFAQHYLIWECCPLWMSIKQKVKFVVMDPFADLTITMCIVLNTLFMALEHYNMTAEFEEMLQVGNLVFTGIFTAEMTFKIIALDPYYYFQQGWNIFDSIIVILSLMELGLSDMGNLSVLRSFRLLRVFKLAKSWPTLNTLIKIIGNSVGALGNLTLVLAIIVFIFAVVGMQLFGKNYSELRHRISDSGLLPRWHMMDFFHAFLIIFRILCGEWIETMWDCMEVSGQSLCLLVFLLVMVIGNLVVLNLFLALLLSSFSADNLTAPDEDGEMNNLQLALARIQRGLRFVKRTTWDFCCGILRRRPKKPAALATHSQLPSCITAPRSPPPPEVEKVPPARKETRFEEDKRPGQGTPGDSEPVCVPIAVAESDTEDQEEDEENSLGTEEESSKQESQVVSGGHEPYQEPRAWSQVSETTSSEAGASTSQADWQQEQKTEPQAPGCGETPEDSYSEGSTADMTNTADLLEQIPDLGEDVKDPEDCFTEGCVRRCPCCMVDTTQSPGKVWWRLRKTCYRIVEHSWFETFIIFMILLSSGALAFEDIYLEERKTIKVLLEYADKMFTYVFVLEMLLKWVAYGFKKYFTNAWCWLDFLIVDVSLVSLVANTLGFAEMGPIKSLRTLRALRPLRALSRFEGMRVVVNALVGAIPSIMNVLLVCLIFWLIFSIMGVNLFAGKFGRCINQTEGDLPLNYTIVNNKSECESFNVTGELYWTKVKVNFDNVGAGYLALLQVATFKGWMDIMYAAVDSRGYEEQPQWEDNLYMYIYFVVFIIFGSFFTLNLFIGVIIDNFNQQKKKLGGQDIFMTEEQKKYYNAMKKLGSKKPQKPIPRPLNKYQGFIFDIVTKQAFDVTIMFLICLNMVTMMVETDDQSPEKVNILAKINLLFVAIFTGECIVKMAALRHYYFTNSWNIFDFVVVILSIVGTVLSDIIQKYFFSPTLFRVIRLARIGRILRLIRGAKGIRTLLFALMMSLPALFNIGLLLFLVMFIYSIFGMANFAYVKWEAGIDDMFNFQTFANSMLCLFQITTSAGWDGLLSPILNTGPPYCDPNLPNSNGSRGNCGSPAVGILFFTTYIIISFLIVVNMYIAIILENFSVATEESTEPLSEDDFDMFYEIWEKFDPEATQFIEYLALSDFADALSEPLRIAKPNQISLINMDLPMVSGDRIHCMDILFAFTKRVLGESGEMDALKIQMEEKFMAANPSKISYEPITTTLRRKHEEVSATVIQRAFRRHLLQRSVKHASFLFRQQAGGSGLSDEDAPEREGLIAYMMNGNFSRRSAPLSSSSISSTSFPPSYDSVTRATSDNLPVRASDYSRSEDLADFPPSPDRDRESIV", "test": "Whole-cell patch clamp, Nav1.5 mutant R800D in HEK293 cells", "format": "cell-based", "details": "1 µM", "text": "We next investigated the critical residues in DIIS3-S4 linker that determined the sensitivity of Nav1.7 to JZTX-34. An acidic residue, D816, is present in the DIIS3-S4 linker of Nav1.7, while the corresponding residue in Nav1.5 is an alkaline amino acid, R800. To determine whether the acidic residue D816 occupies an important role in toxin binding, we constructed two mutants: D816R of Nav1.7 and R800D of Nav1.5. One µM of JZTX-34 inhibited 54.3 ± 5.2% of WT Nav1.7 currents (Figure 4A), but only 16.8 ± 4.6% currents of D816R were inhibited at the same concentration (Figure 4B). […]\nas §2, §3\nData from Axon 700B patch clamp were analyzed by Clampfit10.0 (Molecular Devices, Sunnyvale, CA, USA). […]"}},
  "note": "Residues, ends and D or L forms follow the SMILES beside them.",
  "data": [
    {"smiles": "CC(C)C[C@@H]1NC(=O)[C@H](Cc2c[nH]c3ccccc23)NC(=O)[C@H](CCC(=O)O)NC(=O)[C@H](CCCNC(=N)N)NC(=O)[C@@H](NC(=O)[C@H](C)N)CSSC[C@@H]2NC(=O)[C@@H]3CSSC[C@@H](C(=O)N[C@H](C(=O)N[C@@H](Cc4c[nH]c5ccccc45)C(=O)N[C@@H](CC(=O)O)C(=O)N[C@@H](Cc4c[nH]c5ccccc45)C(=O)N[C@H](C(=O)N[C@H](C(=O)O)C(C)C)[C@@H](C)O)C(C)C)NC(=O)[C@H](Cc4c[nH]cn4)NC(=O)[C@H](Cc4ccc(O)cc4)NC(=O)[C@@H]4CCCN4C(=O)[C@H](Cc4c[nH]c5ccccc45)NC(=O)[C@H](CCCCN)NC(=O)[C@H](CCCCN)NC(=O)[C@H](CCCNC(=N)N)NC(=O)[C@H](CSSC[C@H](NC(=O)CNC(=O)CNC1=O)C(=O)N[C@@H](CO)C(=O)N[C@@H](CCCCN)C(=O)N[C@@H](CC(=O)O)C(=O)N[C@@H](C)C(=O)N[C@@H](CC(=O)O)C(=O)N3)NC(=O)[C@H](CCC(=O)O)NC(=O)[C@H](CC(C)C)NC(=O)[C@H](Cc1c[nH]cn1)NC(=O)[C@H](C)NC2=O", "note": "[JZTX-34, Jingzhaotoxin-34] (HELM PEPTIDE1{A.C.R.E.W.L.G.G.C.S.K.D.A.D.C.C.A.H.L.E.C.R.K.K.W.P.Y.H.C.V.W.D.W.T.V}$PEPTIDE1,PEPTIDE1,2:R3-16:R3|PEPTIDE1,PEPTIDE1,9:R3-21:R3|PEPTIDE1,PEPTIDE1,15:R3-29:R3$$$V2.0; N-terminus and C-terminus assumed)", "values": [
      {"measurement": "effect on Nav1.8 currents", "setting": "Nav1.8", "value": "No effects"},
      {"measurement": "effect on Nav1.2 currents", "setting": "Nav1.2", "value": "No effects"},
      {"measurement": "inhibition of Nav1.5 R800D currents", "setting": "Nav1.5 R800D", "value": "obviously inhibited"}
    ]}
  ]
}
